Test results taken from patent US20180000725A1, “ORALLY-DISSOLVING FILMS FOR DRUG DELIVERY THROUGH THE ORAL CAVITY” (The Chinese University of Hong Kong, priority 2016, published 2018).
Where two headings read alike, the source gives them in different places.

Columns and labels:
[1] = ropinirole, cited from earlier work
[2] = in vivo; details: New Zealand Albino, rabbit, po, 1.5 mg/kg
[3] = In vivo pharmacokinetic study of ropinirole / ROP-ODF; details: New Zealand Albino, rabbit, po, 1.5 mg/kg
[4] = cited from earlier work

In the case of `CCCN(CCC)CCc1cccc2c1CC(=O)N2` [ropinirole, Ropinirole], the Tmax ([1]; after oral administration) is given as ~1.5 h, the “oral dose excreted unchanged” value ([1]; oral) is given as 10% and the AUC(0-inf) [2] is given as 90.5 ng·h/mL. The AUC(0-t) [2] was 65.5 ng·h/mL, the Cmax [2] was 29.9 ± 16.2 ng/mL and the half-life [2] was 2.893 ± 0.0183 h. The Tmax [3] was 2.38 h and the “protein binding in the plasma” value [4] was 10-39%.
